Non-standard residues stand in square brackets, D forms with d. No end group written: not given here. *: point of attachment. βGlc = OC[C@H]1O[C@@H](*)[C@H](O)[C@@H](O)[C@@H]1O; Tyr(3,5-I2) = N[C@@H](Cc1cc(I)c(O)c(I)c1)C(=O)O; Dap = NC[C@H](N)C(=O)O
System: MCF-7 cells
Experiment: MCF-7 cell stimulation (cell growth) assay, cell counts by trypan blue exclusion
Assay type: cell-based, human
Conditions: for MCF-7 cell count increase: no leptin
Description: For the evaluation of the biological activity of the synthesized leptin Site III peptide fragments, human cell lines were selected in which the ObR expression level is known. Two ObR-positive human cell models were used: MCF-7 breast cancer cells and DU-45 prostate cancer cells. Both cell lines express ObR, and leptin and leptin analogues stimulate their growth (C. Garofalo, et al., Clin. Cancer Res., 2004, 10, 6466-6475; C. Garofalo, et al., Clin. Cancer Res., 2006, 12, 1447-1453). Normal mammary epithelial MCF-10 cells lacking ObR were used as a negative control (X. Hu, et al., J. Natl. Cancer Inst., 2002, 94, 1704-1711).
Biological activity of the Site III peptides was assayed as follows. MCF-7 cells were stimulated with 6 nM full-sized leptin. The smaller leptin fragments and analogs were added to the cell culture at a concentration of 10 nM, 100 nM or 1 μM. Leptin at […] concentration stimulated MCF-7 cell growth by approximately 40%, in line with previous observations (C. Garofalo, et al., Clin. Cancer Res., 2004, 10, 6466-6475). All Site III peptides bound to the extracellular domain of ObR as documented by dot-blot or Western-blot analysis. […] In fact, it reversed leptin induced stimulation of MCF-7 cells at as low as 10 nM peptide concentration, with an additional 50% reduction in cell counts at 1 μM. When the assay was run at a more reliably measurable 1 μM peptide concentration, a consistent 6% decrease in cell numbers could be observed compared to the leptin only samples. In summary, in the presence of exogenously added full-sized leptin these assays verified the strong antagonist activity of the Site III Ala,Ala mutant.
The cell stimulation activity of the Site III peptides was assayed as follows. Human leptin was purchased from R&D Systems and used at a concentration of 100 ng/mL (approximately 6 nM). MCF-7 and DU-45 cells naturally expressing ObR were grown in a standard medium DMEM:F12 plus 5% fetal bovine serum. MCF-10 was grown in serum-free mammalian epithelial growth medium supplemented with 100 ng/mL cholera toxin. Seventy percent confluent cultures were synchronized in serum-free medium (DMEM plus 10 μM FeSO4, plus 0.5% albumin) for 24 h and then treated with leptin and/or peptides (different doses) for 5 days. Cell counts before and after treatment were determined by counting the cells using trypan blue exclusion. All assays were conducted in triplicate and repeated at least twice.

Tyr(I2)-Serβ(Glc)-Thr-Glu-Va1-Va1-Ala-Leu-Ser-Arg-Leu-Dap(Ac) ([Tyr(3,5-I2)]S(βGlc)TEVVALSRL[Dap](Ac)-NH2) [E1Free]
MCF-7 cell count increase (100 nM peptide): 81% | further increase of leptin-induced cell stimulation (1000 nM peptide, in the presence of 6 nM leptin): 84% | MCF-7 cell count increase (1000 nM peptide): 114% | overall agonist character on cells expressing ObR (in the presence and absence of leptin): full agonists

From patent publication US8470772B2, “Leptin agonist and methods of use” (Temple University—Of The Commonwealth System of Higher …, priority 2008, dated 2013)
